Measured values published in article PMC8164609 (Environmental Science and Pollution Research International, 2021).
Read-outs that look alike come from different tables or passages of the source.

Tests used:
[1] = target: estrogen receptor; set-up: method as in Axon et al. [2012]; conditions: reporter gene construct in human ERα-positive MCF-7 cells; ref Axon et al. [2012]; read-out: EC50 concentration for estrogen receptor activation; cited from earlier work
[2] = test system: human lymphocytes; conditions: MTT, cited from earlier work
[3] = Estimated human serum concentration from dietary exposure; conditions: 7.3 mg/kg body weight/day as bolus, 2% absorbed, even distribution, maximum reduced by 50%
Procedure: Tartrazine has been classified as a xenoestrogen that can bind to ERα in the MCF-7 cell line (Axon et al. [2012]). […] This raises the question whether tartrazine could create any estrogenic effect in humans at its prevailing serum concentrations. Based on the data published by EFSA, the 95th or 97.5th percentile exposure levels for human is 7.3 mg/kg body weight/day (EFSA [2009]).

[4] = test system: MCF-7 cells; assay: LDH cytotoxicity test; conditions: 24 h, up to 10^−4 M
Procedure: Cytotoxicity was assessed by lactate dehydrogenase (LDH) release. For LDH measurement, Pierce LDH Cytotoxicity Assay Kit (Thermo Scientific, Rockford, USA) was used. MCF-7 cells were seeded at 2.8×10^5 in a transparent 96-well plate, and corner cells of the plate were filled with PBS to prevent the edge effect. SF medium containing DMEM without phenol red, 1% charcoal-stripped FBS, and 4 mM L-glutamine were used for this assay. Plates were incubated for 24 h, and then the cells were treated with test compounds at concentrations ranging from 10^−14 to 10^−4 M or vehicle for another 24 h. On day 3, culture supernatant was collected in a separate 96-well plate, and the assay was continued according to the manufacturer’s instructions. Final absorbance was measured with the microplate reader at 490 and 680 nm. […] Vehicle control was 0.1% EtOH or DMSO. All the exposures were in triplicate, and the experiment was carried out twice.

[5] = test system: estrogen signaling cascade; set-up: method as in Datta and Lundin-Schiller [2008]; Axon et al. [2012]; conditions: ref Datta and Lundin-Schiller [2008]; Axon et al. [2012]; cited from earlier work
[6] = target: T1, human ERα (Homo sapiens, UniProt P03372); assay: Yeast bioluminescent assay, S. cerevisiae BMAEREluc/ERα (ERE-luc reporter); format: cell-based; conditions: S. cerevisiae BMAEREluc/ERα, about 2.5 h incubation, 5% EtOH vehicle; read-out: EC50 (estrogenic potency, luminescence)
T1 construct: expressed in transfected cells; host or cells: Saccharomyces cerevisiae BMAEREluc/ERα (recombinant yeast, gift of Dr. Johanna Rajasärkkä, University of Helsinki)
T1 sequence (P03372 1-595): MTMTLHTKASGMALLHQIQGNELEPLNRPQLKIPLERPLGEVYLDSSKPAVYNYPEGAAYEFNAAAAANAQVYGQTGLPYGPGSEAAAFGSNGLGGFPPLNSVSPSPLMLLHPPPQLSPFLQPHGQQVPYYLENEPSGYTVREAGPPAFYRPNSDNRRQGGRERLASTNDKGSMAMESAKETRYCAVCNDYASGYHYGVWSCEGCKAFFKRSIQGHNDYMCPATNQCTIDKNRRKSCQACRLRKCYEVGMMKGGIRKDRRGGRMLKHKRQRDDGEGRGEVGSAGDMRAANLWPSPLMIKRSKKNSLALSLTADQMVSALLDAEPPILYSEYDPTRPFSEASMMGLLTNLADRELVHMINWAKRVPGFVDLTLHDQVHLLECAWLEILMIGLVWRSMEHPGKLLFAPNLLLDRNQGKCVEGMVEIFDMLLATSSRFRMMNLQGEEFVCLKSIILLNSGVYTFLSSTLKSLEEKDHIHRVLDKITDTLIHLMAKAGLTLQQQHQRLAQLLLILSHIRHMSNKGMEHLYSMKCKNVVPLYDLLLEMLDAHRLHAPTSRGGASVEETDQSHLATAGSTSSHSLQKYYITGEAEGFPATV
Procedure: Yeast bioluminescent assay was performed as previously described (Omoruyi and Pohjanvirta [2018]). Two recombinant yeasts, Saccharomyces cerevisiae BMAEREluc/ERα and Saccharomyces cerevisiae BMA64/luc, were kindly provided by Dr. Johanna Rajasärkkä, Department of Food and Environmental Sciences, Faculty of Agriculture and Forestry, University of Helsinki. In the BMAEREluc/ERα, human ERα is expressed. After estrogen-like chemicals bind to ERα, the dimerized receptor binds to a specific DNA sequence called estrogen response element (ERE), in the promotor region of the luc reporter gene, inducing its expression. In BMA64/luc, the luciferase is expressed constitutively, and this strain can be used for the evaluation of cytotoxicity of test compounds. […]
Next, 90 μL of cultured yeasts containing 1:20 luciferin solution (0.042 g luciferin dissolved in 9.75 mL of 0.2 M trisodium citrate, and 5.525 mL of 0.2 M citrate, pH 5) was pipetted into every well of a white 96-well flat-bottom plate, and 10 μL of test compounds in a defined concentration range (diluted in 5% EtOH) were added. […] The luminescence measurement was performed with Luminoskan Ascent microplate luminometer (Thermo Labsystems) using the recommended settings as follows: 1000 ms integration time, single measurement mode, shaking at 60 rpm for 5 s prior to measurement. […]

In the case of `O=C([O-])C1=NN(c2ccc(S(=O)(=O)[O-])cc2)C(=O)C1N=Nc1ccc(S(=O)(=O)[O-])cc1.[Na+].[Na+].[Na+]` (stereo not shown) [tartrazine], the EC50 [1] is listed as 0.16 µM, the “cytotoxicity to human lymphocytes” value ([2]; 0.25–64 mM, ref Soares et al. [2015]) is listed as “not cytotoxic” and the “cytotoxicity to human lymphocytes” value ([2]; 4 and 8 mM, ref Mpountoukas et al. [2010]) is listed as “cytotoxic”. For the same molecule, the estimated serum concentration [3] was 137 nM, the “maximum level of cytotoxicity (LDH release)” value [4] was “less than 2.5%” and the “concentration range of estrogenic effect in vitro” value [5] was 1 to 10000 pM. For the same molecule, the EC50 [6] was 0.0001 µM.
